In ChEMBL document CHEMBL3526033, “Identification of human liver cytochrome P450 enzymes involved in the metabolism of SCH 530348 (Vorapaxar), a potent oral thrombin protease-activated receptor 1 antagonist” (Drug Metab Dispos, 2011):

Key:
Format in all cases: ADME
CYP3A5 = CYP3A5 (Homo sapiens, UniProt P20815); test: Activity of human recombinant CYP3A5 assessed as enzyme-mediated drug metabolism at 10 uM after 120 mins by LC-MS/MS analysis in presence of NADPH; conditions: read-out: Compound recovery
CYP3A5, sequence (P20815 whole entry): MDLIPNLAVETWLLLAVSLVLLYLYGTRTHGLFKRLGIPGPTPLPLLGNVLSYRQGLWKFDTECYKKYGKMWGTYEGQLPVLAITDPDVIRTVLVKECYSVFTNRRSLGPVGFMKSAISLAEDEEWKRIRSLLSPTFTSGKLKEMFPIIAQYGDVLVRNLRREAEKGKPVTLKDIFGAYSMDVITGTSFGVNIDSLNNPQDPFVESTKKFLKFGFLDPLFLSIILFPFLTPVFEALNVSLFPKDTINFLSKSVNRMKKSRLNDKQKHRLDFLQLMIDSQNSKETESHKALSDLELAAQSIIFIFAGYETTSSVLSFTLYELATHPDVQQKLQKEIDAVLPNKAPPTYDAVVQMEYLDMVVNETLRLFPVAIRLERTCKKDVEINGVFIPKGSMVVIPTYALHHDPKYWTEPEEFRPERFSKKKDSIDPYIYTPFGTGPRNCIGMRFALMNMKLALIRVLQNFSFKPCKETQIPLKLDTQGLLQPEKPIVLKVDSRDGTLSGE

CYP1A1 = CYP1A1 (Homo sapiens, UniProt P04798); test: Activity of human recombinant CYP1A1 assessed as enzyme-mediated drug metabolism at 10 uM after 120 mins by LC-MS/MS analysis in presence of NADPH; conditions: read-out: Compound recovery
CYP1A1, sequence (P04798 whole entry): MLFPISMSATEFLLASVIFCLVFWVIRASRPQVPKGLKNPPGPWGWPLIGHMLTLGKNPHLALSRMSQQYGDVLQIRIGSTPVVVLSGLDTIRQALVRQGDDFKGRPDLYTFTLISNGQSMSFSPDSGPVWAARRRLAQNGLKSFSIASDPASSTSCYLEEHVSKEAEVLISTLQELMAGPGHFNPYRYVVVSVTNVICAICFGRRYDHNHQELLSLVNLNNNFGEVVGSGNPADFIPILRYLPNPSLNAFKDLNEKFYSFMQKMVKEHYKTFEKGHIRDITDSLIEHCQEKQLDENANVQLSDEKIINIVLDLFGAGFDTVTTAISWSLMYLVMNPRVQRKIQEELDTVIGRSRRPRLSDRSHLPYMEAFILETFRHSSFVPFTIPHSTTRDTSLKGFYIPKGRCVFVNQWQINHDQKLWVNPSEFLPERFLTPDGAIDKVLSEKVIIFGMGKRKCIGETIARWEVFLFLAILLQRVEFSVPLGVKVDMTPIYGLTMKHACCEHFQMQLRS

CYP3A4 = CYP3A4 (Homo sapiens, UniProt P08684); test: Activity of human recombinant CYP3A4 assessed as enzyme-mediated drug metabolism at 10 uM after 120 mins by LC-MS/MS analysis in presence of NADPH; conditions: read-out: Compound recovery
CYP3A4, sequence (P08684 whole entry): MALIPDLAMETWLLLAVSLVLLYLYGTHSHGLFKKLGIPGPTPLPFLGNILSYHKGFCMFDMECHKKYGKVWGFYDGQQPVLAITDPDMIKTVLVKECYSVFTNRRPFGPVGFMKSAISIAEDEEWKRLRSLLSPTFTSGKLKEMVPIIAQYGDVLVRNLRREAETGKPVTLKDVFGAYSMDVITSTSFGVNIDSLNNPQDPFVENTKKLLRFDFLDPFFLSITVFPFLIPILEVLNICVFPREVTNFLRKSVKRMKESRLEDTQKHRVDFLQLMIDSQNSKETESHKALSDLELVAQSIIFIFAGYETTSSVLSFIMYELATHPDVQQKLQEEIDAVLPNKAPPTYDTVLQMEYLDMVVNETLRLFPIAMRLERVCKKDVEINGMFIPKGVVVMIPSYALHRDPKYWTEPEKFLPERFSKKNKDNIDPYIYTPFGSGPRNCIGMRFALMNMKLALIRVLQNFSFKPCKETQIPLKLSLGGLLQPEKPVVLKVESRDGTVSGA

Liver microsome = test: Drug metabolism in human liver microsomes assessed as (3R,3aS,4S,4aR,7R,8aR,9aR)-7-amino-4-((E)-2-(5-(3-fluorophenyl)pyridin-2-yl)vinyl)-3-methyldecahydronaphtho[2,3-c]furan-1(3H)-one formation at 10 to 25 uM after 120 mins by LC-MS/MS analysis in presence of omeprazole; conditions: 2 h
CYP2C9 = CYP2C9 (Homo sapiens, UniProt P11712); test: Activity of human recombinant CYP2C9 assessed as enzyme-mediated drug metabolism at 10 uM after 120 mins by LC-MS/MS analysis in presence of NADPH; conditions: read-out: Compound recovery
CYP2C9, sequence (P11712 whole entry): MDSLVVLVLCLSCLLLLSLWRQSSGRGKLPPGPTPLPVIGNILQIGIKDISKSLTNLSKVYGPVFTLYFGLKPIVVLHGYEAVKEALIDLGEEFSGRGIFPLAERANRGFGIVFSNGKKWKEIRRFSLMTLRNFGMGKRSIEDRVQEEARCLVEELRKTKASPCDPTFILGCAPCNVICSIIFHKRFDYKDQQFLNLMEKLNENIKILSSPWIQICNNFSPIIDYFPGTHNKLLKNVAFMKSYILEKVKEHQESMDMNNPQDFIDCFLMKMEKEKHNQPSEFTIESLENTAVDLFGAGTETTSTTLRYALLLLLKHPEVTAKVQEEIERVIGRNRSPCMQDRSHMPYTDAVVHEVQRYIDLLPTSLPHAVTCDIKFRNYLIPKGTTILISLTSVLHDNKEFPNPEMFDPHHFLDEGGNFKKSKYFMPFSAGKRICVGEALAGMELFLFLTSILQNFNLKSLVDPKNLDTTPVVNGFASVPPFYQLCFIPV

Cytochrome P450 3A5 [1] = target: T1, Cytochrome P450 3A5 (Homo sapiens, UniProt P20815); test: Activity of human recombinant CYP3A5 assessed as enzyme-mediated drug metabolism treated with 25 uM vorapaxar after 120 mins by LC-MS/MS analysis in presence of NADPH; conditions: 2 h
T1 sequence (P20815 whole entry): as the sequence (P20815 whole entry) above

Cytochrome P450 2D6 = Cytochrome P450 2D6 (Homo sapiens, UniProt P10635); test: Activity of human recombinant CYP2D6 assessed as enzyme-mediated drug metabolism treated with 25 uM vorapaxar after 120 mins by LC-MS/MS analysis in presence of NADPH; conditions: 2 h
Cytochrome P450 2D6, sequence (P10635 whole entry): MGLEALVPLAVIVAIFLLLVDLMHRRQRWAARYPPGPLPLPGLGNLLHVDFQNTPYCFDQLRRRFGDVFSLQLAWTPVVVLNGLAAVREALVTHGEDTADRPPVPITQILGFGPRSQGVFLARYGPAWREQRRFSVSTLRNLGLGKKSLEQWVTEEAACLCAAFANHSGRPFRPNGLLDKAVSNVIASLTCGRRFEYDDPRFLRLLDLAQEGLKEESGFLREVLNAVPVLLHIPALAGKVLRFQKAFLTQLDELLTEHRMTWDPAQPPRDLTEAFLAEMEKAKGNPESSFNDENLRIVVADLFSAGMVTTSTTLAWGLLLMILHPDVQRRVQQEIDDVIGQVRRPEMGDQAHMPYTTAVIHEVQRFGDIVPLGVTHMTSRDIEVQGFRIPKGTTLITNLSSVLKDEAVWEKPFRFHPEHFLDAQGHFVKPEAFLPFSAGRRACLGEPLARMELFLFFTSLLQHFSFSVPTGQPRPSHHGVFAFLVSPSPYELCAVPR

Cytochrome P450 4F3 [2] = target: T2, Cytochrome P450 4F3 (Homo sapiens, UniProt Q08477); test: Activity of human recombinant CYP4F3A assessed as enzyme-mediated drug metabolism treated with 25 uM vorapaxar after 120 mins by LC-MS/MS analysis in presence of NADPH; conditions: 2 h
T2 sequence (Q08477 whole entry): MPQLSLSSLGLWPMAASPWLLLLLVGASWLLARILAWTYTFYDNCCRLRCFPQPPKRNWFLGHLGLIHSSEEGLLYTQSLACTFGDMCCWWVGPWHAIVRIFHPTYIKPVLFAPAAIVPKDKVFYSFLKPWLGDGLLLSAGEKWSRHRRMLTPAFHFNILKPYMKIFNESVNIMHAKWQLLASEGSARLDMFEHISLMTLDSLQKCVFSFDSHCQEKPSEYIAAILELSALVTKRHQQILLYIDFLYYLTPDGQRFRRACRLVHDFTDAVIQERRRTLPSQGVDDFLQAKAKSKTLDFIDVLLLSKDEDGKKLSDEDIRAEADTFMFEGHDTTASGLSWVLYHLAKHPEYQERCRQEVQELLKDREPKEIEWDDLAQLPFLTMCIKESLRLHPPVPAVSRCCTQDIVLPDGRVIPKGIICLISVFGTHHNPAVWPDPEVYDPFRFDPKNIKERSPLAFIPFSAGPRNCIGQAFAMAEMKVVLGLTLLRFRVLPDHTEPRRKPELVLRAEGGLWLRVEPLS

Cytochrome P450 4F3 [3] = target: T2, Cytochrome P450 4F3; test: Activity of human recombinant CYP4F3B assessed as enzyme-mediated 2-hydroxyethyl (1R,3aR,4aR,6R,8aR,9S,9aS)-9-((E)-2-(5-(3-fluorophenyl)pyridin-2-yl)vinyl)-1-methyl-3-oxododecahydronaphtho[2,3-c]furan-6-ylcarbamate formation at 25 uM after 120 mins by LC-MS/MS analysis in presence of NADPH; conditions: 2 h
Cytochrome P450 4F2 = Cytochrome P450 4F2 (Homo sapiens, UniProt P78329); test: Activity of human recombinant CYP4F2 assessed as enzyme-mediated 2-hydroxyethyl (1R,3aR,4aR,6R,8aR,9S,9aS)-9-((E)-2-(5-(3-fluorophenyl)pyridin-2-yl)vinyl)-1-methyl-3-oxododecahydronaphtho[2,3-c]furan-6-ylcarbamate formation at 25 uM after 120 mins by LC-MS/MS analysis in presence of NADPH; conditions: 2 h
Cytochrome P450 4F2, sequence (P78329 whole entry): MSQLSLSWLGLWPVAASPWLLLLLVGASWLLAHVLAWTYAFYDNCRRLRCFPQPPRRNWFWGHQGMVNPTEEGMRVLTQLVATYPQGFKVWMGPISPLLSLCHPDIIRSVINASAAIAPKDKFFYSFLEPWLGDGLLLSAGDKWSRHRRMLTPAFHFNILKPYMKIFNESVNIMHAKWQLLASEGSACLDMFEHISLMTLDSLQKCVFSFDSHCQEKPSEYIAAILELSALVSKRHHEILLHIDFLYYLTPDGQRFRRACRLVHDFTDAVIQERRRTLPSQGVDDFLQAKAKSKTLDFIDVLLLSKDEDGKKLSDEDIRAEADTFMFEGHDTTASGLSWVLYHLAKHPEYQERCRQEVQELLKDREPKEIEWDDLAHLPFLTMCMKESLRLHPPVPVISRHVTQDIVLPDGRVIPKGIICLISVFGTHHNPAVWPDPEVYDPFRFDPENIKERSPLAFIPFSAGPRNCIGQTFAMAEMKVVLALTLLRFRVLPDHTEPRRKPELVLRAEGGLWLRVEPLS

Cytochrome P450 1A2 [4] = target: T3, Cytochrome P450 1A2 (Homo sapiens, UniProt P05177); test: Activity of human recombinant CYP1A2 assessed as enzyme-mediated 2-hydroxyethyl (1R,3aR,4aR,6R,8aR,9S,9aS)-9-((E)-2-(5-(3-fluorophenyl)pyridin-2-yl)vinyl)-1-methyl-3-oxododecahydronaphtho[2,3-c]furan-6-ylcarbamate formation at 25 uM after 120 mins by LC-MS/MS analysis in presence of NADPH; conditions: 2 h
T3 sequence (P05177 whole entry): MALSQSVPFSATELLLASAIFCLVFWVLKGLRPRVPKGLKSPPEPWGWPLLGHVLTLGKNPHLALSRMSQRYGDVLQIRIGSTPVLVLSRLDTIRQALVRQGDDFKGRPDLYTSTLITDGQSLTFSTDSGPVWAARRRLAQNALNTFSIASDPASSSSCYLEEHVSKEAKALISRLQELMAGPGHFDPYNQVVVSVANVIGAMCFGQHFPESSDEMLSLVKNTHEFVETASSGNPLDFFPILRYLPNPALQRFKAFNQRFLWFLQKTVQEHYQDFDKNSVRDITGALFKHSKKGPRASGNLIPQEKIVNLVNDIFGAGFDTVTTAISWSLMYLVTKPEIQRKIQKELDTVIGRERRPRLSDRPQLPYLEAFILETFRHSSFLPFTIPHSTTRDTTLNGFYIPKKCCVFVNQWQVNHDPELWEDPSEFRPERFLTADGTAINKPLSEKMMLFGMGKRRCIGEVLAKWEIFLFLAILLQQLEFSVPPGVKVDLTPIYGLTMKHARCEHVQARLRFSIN

Cytochrome P450 3A5 [5] = target: T1, Cytochrome P450 3A5; test: Activity of human recombinant CYP3A5 assessed as enzyme-mediated (3R,3aS,4S,4aR,7R,8aR,9aR)-7-amino-4-((E)-2-(5-(3-fluorophenyl)pyridin-2-yl)vinyl)-3-methyldecahydronaphtho[2,3-c]furan-1(3H)-one formation at 25 uM after 120 mins by LC-MS/MS analysis in presence of NADPH; conditions: 2 h
Cytochrome P450 1A2 [6] = target: T3, Cytochrome P450 1A2; test: Activity of human recombinant CYP1A2 assessed as enzyme-mediated (3R,3aS,4S,4aR,7R,8aR,9aR)-7-amino-4-((E)-2-(5-(3-fluorophenyl)pyridin-2-yl)vinyl)-3-methyldecahydronaphtho[2,3-c]furan-1(3H)-one formation at 25 uM after 120 mins by LC-MS/MS analysis in presence of NADPH; conditions: 2 h

## CCOC(=O)N[C@@H]1CC[C@@H]2[C@@H](C1)C[C@H]1C(=O)O[C@H](C)[C@H]1[C@H]2/C=C/c1ccc(-c2cccc(F)c2)cn1 [VORAPAXAR]
CYP3A5
  remaining at 2 h, 10 µM: 93.9%
CYP1A1
  remaining at 2 h, 10 µM: 96.3%
CYP3A4
  remaining at 2 h, 10 µM: 72.5%
Liver microsome
  Drug metabolism: metabolite_detected
CYP2C9
  remaining at 2 h, 10 µM: 98.8%

## C[C@H]1OC(=O)[C@@H]2C[C@@H]3C[C@H](NC(=O)OCCO)CC[C@H]3[C@H](/C=C/c3ccc(-c4cccc(F)c4)cn3)[C@H]12
Cytochrome P450 3A5 [1]
  Drug metabolism: metabolite_detected
Cytochrome P450 2D6
  Drug metabolism: metabolite_detected
Cytochrome P450 4F3 [2]
  Drug metabolism: metabolite_detected

## CCOC(=O)N[C@@H]1CC[C@@H]2[C@@H](C1)C[C@H]1C(=O)O[C@H](C)[C@H]1[C@H]2/C=[14CH]/c1ccc(-c2cccc(F)c2)cn1
Cytochrome P450 4F3 [3]
  Drug metabolism: metabolite_detected
Cytochrome P450 4F2
  Drug metabolism: metabolite_detected
Cytochrome P450 1A2 [4]
  Drug metabolism: metabolite_detected
Cytochrome P450 3A5 [5]
  Drug metabolism: metabolite_detected
Cytochrome P450 1A2 [6]
  Drug metabolism: metabolite_detected
